Measured values reported in PubChem BioAssay (NCI).
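Interpolation was linear, between the two tested concentrations surrounding the appropriate level; five concentrations were tested over 48 hours in 96-well plates. TGI: concentration producing complete growth inhibition.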

Key:
Experiment in all cases: NCI-60 cell line screen, 48 h
SR leukemia = system: SR leukemia
HOP-62 NSCLC = system: HOP-62 NSCLC
SNB-75 CNS = system: SNB-75 CNS
MCF7 breast = system: MCF7 breast
UACC-257 melanoma = system: UACC-257 melanoma
RXF 393 renal = system: RXF 393 renal
SK-MEL-28 melanoma = system: SK-MEL-28 melanoma
SK-MEL-5 melanoma = system: SK-MEL-5 melanoma
HCC-2998 colon = system: HCC-2998 colon
ACHN renal = system: ACHN renal
786-0 renal = system: 786-0 renal

SMILES	TGI (SR leukemia)	TGI (HOP-62 NSCLC)	TGI (SNB-75 CNS)	TGI (MCF7 breast)	TGI (UACC-257 melanoma)	TGI (RXF 393 renal)	TGI (SK-MEL-28 melanoma)	TGI (SK-MEL-5 melanoma)	TGI (HCC-2998 colon)	TGI (ACHN renal)	TGI (786-0 renal)
O=C(OCCNC(=O)N1CC1)OCCNC(=O)N1CC1	> 10 µM	> 10 µM	> 10 µM	> 10 µM	> 10 µM	> 10 µM	> 10 µM	> 10 µM	> 10 µM	> 10 µM	> 10 µM
ClCCCCCc1c2nc(c(CCCCCCl)c3ccc([nH]3)c(CCCCCCl)c3ccc([nH]3)c(CCCCCCl)c3nc1C=C3)C=C2	> 100 µM	> 100 µM	> 100 µM	> 100 µM	> 100 µM	> 100 µM	> 100 µM	> 100 µM	> 100 µM	> 100 µM	> 100 µM
CCCCCCCCCCCCCCCCCCOCC(O)COP(=O)(O)OCC1OC(n2ccc(N)nc2=O)C(O)C1O (stereo not given)	40.4 µM	48.9 µM	28.7 µM	> 100 µM	> 100 µM	33.3 µM	> 100 µM	> 100 µM	> 100 µM	> 100 µM	26.5 µM
COc1cccc(C2c3cc4c(cc3OC(Nc3ccccc3)C2C)OCO4)c1OC (stereo not given)	11.2 µM	> 100 µM	> 100 µM	> 100 µM	97.3 µM	> 100 µM	> 100 µM	> 100 µM	> 100 µM	> 100 µM	22.9 µM
CC(=O)N(C(C)=O)c1cc2c3c(c1)CCCN3CCC2	> 10 µM	> 10 µM	> 10 µM	> 10 µM	> 10 µM	> 10 µM	> 10 µM	> 10 µM	> 10 µM	> 10 µM	> 10 µM
